In the supplement of paper PMC10307832:

Key:
Assay in all cases: relative viability (nuclei count vs DMSO), 5 days (fraction); higher = more cells survive
NCI-H1563 = tested on: NCI-H1563
Procedure, shortened: (§1)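 Relative viability was taken as the ratio of nuclei in treated wells to nuclei in vehicle wells. Lung cancer cell lines in 1536-well plates received compounds by pin tool one day after seeding, either one drug alone or a fixed anchor-drug dose plus five library-drug doses (not always all listed) in √10 steps. Nuclei were counted on 4× images after 5 days of treatment, and values are medians of duplicate plates.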

LC-2-ad = tested on: LC-2-ad
Procedure, shortened: as §1

H3255 = tested on: H3255
Procedure, shortened: as §1

NCI-H2347 = tested on: NCI-H2347
Procedure, shortened: as §1

HCC-44 = tested on: HCC-44
Procedure, shortened: as §1

NCI-H23 = tested on: NCI-H23
Procedure, shortened: as §1

LCLC-103H = tested on: LCLC-103H
Procedure, shortened: as §1

NCI-H460 = tested on: NCI-H460
Procedure, shortened: as §1

PC-14 = tested on: PC-14
Procedure, shortened: as §1

SW 1573 = tested on: SW 1573
Procedure, shortened: as §1

A-427 = tested on: A-427
Procedure, shortened: as §1

NCI-H2228 = tested on: NCI-H2228
Procedure, shortened: as §1

LU99A = tested on: LU99A
Procedure, shortened: as §1

NCI-H1650 = tested on: NCI-H1650
Procedure, shortened: as §1

NCI-H727 = tested on: NCI-H727
Procedure, shortened: as §1

NCI-H596 = tested on: NCI-H596
Procedure, shortened: as §1

COR-L23 = tested on: COR-L23
Procedure, shortened: as §1

201T = tested on: 201T
Procedure, shortened: as §1

LCLC-97TM1 = tested on: LCLC-97TM1
Procedure, shortened: as §1

Q: `Nc1ccn([C@@H]2O[C@H](CO)[C@@H](O)[C@@H]2O)c(=O)n1` [Cytarabine] + CC(C)C[C@H](NC(=O)[C@H](Cc1ccccc1)NC(=O)c1cnccn1)B(O)O [Bortezomib] (partner 0.002 µM) was tested. Which relative viability (NCI-H1563; first compound 0.005 µM) did it give?
A: Its relative viability is 0.878.

Q: And the relative viability (NCI-H1563; first compound 0.01581 µM)?
A: The relative viability was 0.928.

Q: What about the relative viability (NCI-H1563; first compound 0.05 µM) of the same molecule?
A: Its relative viability is 0.779.

Q: And the relative viability (NCI-H1563; first compound 0.1581 µM)?
A: The relative viability was 0.835.

Q: And the relative viability (NCI-H1563; first compound 0.5 µM)?
A: The relative viability was 0.592.

Q: What about the relative viability (LC-2-ad; first compound 0.005 µM) of the same molecule?
A: Its relative viability is 1.01.

Q: What about the relative viability (LC-2-ad; first compound 0.01581 µM) of the same molecule?
A: The relative viability was 0.888.

Q: And the relative viability (LC-2-ad; first compound 0.05 µM)?
A: Its relative viability is 0.954.

Q: And the relative viability (LC-2-ad; first compound 0.1581 µM)?
A: The relative viability was 0.434.

Q: And the relative viability (LC-2-ad; first compound 0.5 µM)?
A: Its relative viability is 0.145.

Q: And the relative viability (H3255; first compound 0.005 µM)?
A: The relative viability was 0.745.

Q: And the relative viability (H3255; first compound 0.01581 µM)?
A: Its relative viability is 0.797.

Q: And the relative viability (H3255; first compound 0.05 µM)?
A: The relative viability was 0.575.

Q: What about the relative viability (H3255; first compound 0.1581 µM) of the same molecule?
A: The relative viability was 0.517.

Q: And the relative viability (H3255; first compound 0.5 µM)?
A: Its relative viability is 0.468.

Q: What about the relative viability (NCI-H2347; first compound 0.005 µM) of the same molecule?
A: The relative viability was 1.22.

Q: What about the relative viability (NCI-H2347; first compound 0.01581 µM) of the same molecule?
A: The relative viability was 0.951.

Q: And the relative viability (NCI-H2347; first compound 0.05 µM)?
A: The relative viability was 0.546.

Q: And the relative viability (NCI-H2347; first compound 0.1581 µM)?
A: The relative viability was 0.61.

Q: And the relative viability (NCI-H2347; first compound 0.5 µM)?
A: Its relative viability is 0.667.

Q: And the relative viability (HCC-44; first compound 0.005 µM)?
A: The relative viability was 0.828.

Q: And the relative viability (HCC-44; first compound 0.01581 µM)?
A: The relative viability was 0.895.

Q: And the relative viability (HCC-44; first compound 0.05 µM)?
A: The relative viability was 0.793.

Q: And the relative viability (HCC-44; first compound 0.1581 µM)?
A: The relative viability was 0.425.

Q: What about the relative viability (HCC-44; first compound 0.5 µM) of the same molecule?
A: The relative viability was 0.405.

Q: What about the relative viability (NCI-H23; first compound 0.005 µM) of the same molecule?
A: Its relative viability is 0.743.

Q: And the relative viability (NCI-H23; first compound 0.01581 µM)?
A: Its relative viability is 0.656.

Q: And the relative viability (NCI-H23; first compound 0.05 µM)?
A: The relative viability was 0.559.

Q: What about the relative viability (NCI-H23; first compound 0.1581 µM) of the same molecule?
A: The relative viability was 0.24.

Q: And the relative viability (NCI-H23; first compound 0.5 µM)?
A: Its relative viability is 0.214.

Q: What about the relative viability (LCLC-103H; first compound 0.005 µM) of the same molecule?
A: Its relative viability is 0.977.

Q: What about the relative viability (LCLC-103H; first compound 0.01581 µM) of the same molecule?
A: Its relative viability is 1.17.

Q: And the relative viability (LCLC-103H; first compound 0.05 µM)?
A: Its relative viability is 0.958.

Q: What about the relative viability (LCLC-103H; first compound 0.1581 µM) of the same molecule?
A: Its relative viability is 1.04.

Q: And the relative viability (LCLC-103H; first compound 0.5 µM)?
A: The relative viability was 0.966.

Q: What about the relative viability (NCI-H460; first compound 0.005 µM) of the same molecule?
A: Its relative viability is 0.677.

Q: What about the relative viability (NCI-H460; first compound 0.01581 µM) of the same molecule?
A: Its relative viability is 0.968.

Q: What about the relative viability (NCI-H460; first compound 0.05 µM) of the same molecule?
A: Its relative viability is 0.265.

Q: What about the relative viability (NCI-H460; first compound 0.1581 µM) of the same molecule?
A: Its relative viability is 0.028.

Q: And the relative viability (NCI-H460; first compound 0.5 µM)?
A: Its relative viability is 0.0192.

Q: And the relative viability (PC-14; first compound 0.005 µM)?
A: The relative viability was 0.872.

Q: What about the relative viability (PC-14; first compound 0.01581 µM) of the same molecule?
A: The relative viability was 0.88.

Q: What about the relative viability (PC-14; first compound 0.05 µM) of the same molecule?
A: The relative viability was 0.641.

Q: What about the relative viability (PC-14; first compound 0.1581 µM) of the same molecule?
A: The relative viability was 0.326.

Q: What about the relative viability (PC-14; first compound 0.5 µM) of the same molecule?
A: Its relative viability is 0.268.

Q: And the relative viability (SW 1573; first compound 0.005 µM)?
A: The relative viability was 1.1.

Q: And the relative viability (SW 1573; first compound 0.01581 µM)?
A: The relative viability was 0.847.

Q: And the relative viability (SW 1573; first compound 0.05 µM)?
A: The relative viability was 0.675.

Q: What about the relative viability (SW 1573; first compound 0.1581 µM) of the same molecule?
A: The relative viability was 0.461.

Q: And the relative viability (SW 1573; first compound 0.5 µM)?
A: The relative viability was 0.159.

Q: What about the relative viability (A-427; first compound 0.005 µM) of the same molecule?
A: Its relative viability is 0.752.

Q: And the relative viability (A-427; first compound 0.01581 µM)?
A: Its relative viability is 0.46.

Q: And the relative viability (A-427; first compound 0.05 µM)?
A: Its relative viability is 0.276.

Q: What about the relative viability (A-427; first compound 0.1581 µM) of the same molecule?
A: Its relative viability is 0.171.

Q: What about the relative viability (A-427; first compound 0.5 µM) of the same molecule?
A: The relative viability was 0.166.

Q: And the relative viability (NCI-H2228; first compound 0.005 µM)?
A: Its relative viability is 0.791.

Q: What about the relative viability (NCI-H2228; first compound 0.01581 µM) of the same molecule?
A: Its relative viability is 0.441.

Q: And the relative viability (NCI-H2228; first compound 0.05 µM)?
A: The relative viability was 0.437.

Q: What about the relative viability (NCI-H2228; first compound 0.1581 µM) of the same molecule?
A: Its relative viability is 0.197.

Q: And the relative viability (NCI-H2228; first compound 0.5 µM)?
A: The relative viability was 0.156.

Q: What about the relative viability (LU99A; first compound 0.005 µM) of the same molecule?
A: The relative viability was 1.14.

Q: What about the relative viability (LU99A; first compound 0.01581 µM) of the same molecule?
A: The relative viability was 1.24.

Q: What about the relative viability (LU99A; first compound 0.05 µM) of the same molecule?
A: Its relative viability is 1.26.

Q: And the relative viability (LU99A; first compound 0.1581 µM)?
A: Its relative viability is 1.01.

Q: And the relative viability (LU99A; first compound 0.5 µM)?
A: Its relative viability is 1.03.

Q: What about the relative viability (NCI-H1650; first compound 0.005 µM) of the same molecule?
A: Its relative viability is 0.215.

Q: And the relative viability (NCI-H1650; first compound 0.01581 µM)?
A: Its relative viability is 0.166.

Q: And the relative viability (NCI-H1650; first compound 0.05 µM)?
A: The relative viability was 0.172.

Q: And the relative viability (NCI-H1650; first compound 0.1581 µM)?
A: The relative viability was 0.161.

Q: What about the relative viability (NCI-H1650; first compound 0.5 µM) of the same molecule?
A: The relative viability was 0.154.

Q: And the relative viability (NCI-H727; first compound 0.005 µM)?
A: The relative viability was 0.524.

Q: What about the relative viability (NCI-H727; first compound 0.01581 µM) of the same molecule?
A: The relative viability was 0.558.

Q: What about the relative viability (NCI-H727; first compound 0.05 µM) of the same molecule?
A: The relative viability was 0.484.

Q: And the relative viability (NCI-H727; first compound 0.1581 µM)?
A: The relative viability was 0.334.

Q: And the relative viability (NCI-H727; first compound 0.5 µM)?
A: Its relative viability is 0.315.

Q: And the relative viability (NCI-H596; first compound 0.005 µM)?
A: The relative viability was 0.788.

Q: What about the relative viability (NCI-H596; first compound 0.01581 µM) of the same molecule?
A: The relative viability was 0.853.

Q: What about the relative viability (NCI-H596; first compound 0.05 µM) of the same molecule?
A: The relative viability was 0.904.

Q: What about the relative viability (NCI-H596; first compound 0.1581 µM) of the same molecule?
A: Its relative viability is 0.62.

Q: What about the relative viability (NCI-H596; first compound 0.5 µM) of the same molecule?
A: The relative viability was 0.704.

Q: What about the relative viability (COR-L23; first compound 0.005 µM) of the same molecule?
A: The relative viability was 1.01.

Q: And the relative viability (COR-L23; first compound 0.01581 µM)?
A: The relative viability was 0.945.

Q: What about the relative viability (COR-L23; first compound 0.05 µM) of the same molecule?
A: Its relative viability is 0.913.

Q: What about the relative viability (COR-L23; first compound 0.1581 µM) of the same molecule?
A: Its relative viability is 0.274.

Q: And the relative viability (COR-L23; first compound 0.5 µM)?
A: The relative viability was 0.165.

Q: What about the relative viability (201T; first compound 0.005 µM) of the same molecule?
A: The relative viability was 1.07.

Q: And the relative viability (201T; first compound 0.01581 µM)?
A: Its relative viability is 1.11.

Q: And the relative viability (201T; first compound 0.05 µM)?
A: The relative viability was 0.866.

Q: What about the relative viability (201T; first compound 0.1581 µM) of the same molecule?
A: The relative viability was 1.01.

Q: What about the relative viability (201T; first compound 0.5 µM) of the same molecule?
A: The relative viability was 1.

Q: And the relative viability (LCLC-97TM1; first compound 0.005 µM)?
A: The relative viability was 0.277.

Q: And the relative viability (LCLC-97TM1; first compound 0.01581 µM)?
A: The relative viability was 0.349.

Q: And the relative viability (LCLC-97TM1; first compound 0.05 µM)?
A: The relative viability was 0.132.

Q: What about the relative viability (LCLC-97TM1; first compound 0.1581 µM) of the same molecule?
A: The relative viability was 0.084.

Q: What about the relative viability (LCLC-97TM1; first compound 0.5 µM) of the same molecule?
A: The relative viability was 0.0888.
